Source: ChEMBL document CHEMBL3232739, “Discovery of a potent and dissociated non-steroidal glucocorticoid receptor agonist containing an alkyl carbinol pharmacophore” (Bioorg Med Chem Lett, 2014)

Columns and labels:
Progesterone receptor = target: T1, Progesterone receptor (Homo sapiens, UniProt P06401); test: Displacement of TAMRA-labeled mifepristone from progesterone receptor (unknown origin) by fluorescence polarization assay
T1 sequence (P06401 whole entry): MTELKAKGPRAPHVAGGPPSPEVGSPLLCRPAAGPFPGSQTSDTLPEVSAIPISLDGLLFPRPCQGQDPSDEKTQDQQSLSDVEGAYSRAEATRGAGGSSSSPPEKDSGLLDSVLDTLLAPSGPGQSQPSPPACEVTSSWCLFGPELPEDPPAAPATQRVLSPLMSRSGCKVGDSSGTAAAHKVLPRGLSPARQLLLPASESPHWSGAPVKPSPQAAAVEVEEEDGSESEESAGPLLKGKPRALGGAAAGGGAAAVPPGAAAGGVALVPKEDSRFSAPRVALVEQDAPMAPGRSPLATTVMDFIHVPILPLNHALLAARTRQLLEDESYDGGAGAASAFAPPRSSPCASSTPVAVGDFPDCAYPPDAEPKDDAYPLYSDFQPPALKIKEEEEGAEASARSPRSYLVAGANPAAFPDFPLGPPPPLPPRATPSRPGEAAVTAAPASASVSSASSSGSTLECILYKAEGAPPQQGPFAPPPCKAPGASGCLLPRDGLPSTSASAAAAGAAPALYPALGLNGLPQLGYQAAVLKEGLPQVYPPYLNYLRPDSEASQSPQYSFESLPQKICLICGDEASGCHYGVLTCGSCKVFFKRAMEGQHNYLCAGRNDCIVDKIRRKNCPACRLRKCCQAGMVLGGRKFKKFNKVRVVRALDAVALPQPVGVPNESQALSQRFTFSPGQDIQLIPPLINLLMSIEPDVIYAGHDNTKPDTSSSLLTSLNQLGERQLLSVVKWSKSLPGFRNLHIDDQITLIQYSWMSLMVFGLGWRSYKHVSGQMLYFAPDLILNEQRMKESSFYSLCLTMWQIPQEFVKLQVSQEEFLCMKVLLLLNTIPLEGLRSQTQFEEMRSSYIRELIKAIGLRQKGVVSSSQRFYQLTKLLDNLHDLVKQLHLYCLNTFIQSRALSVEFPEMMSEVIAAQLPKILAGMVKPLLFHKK

[1] = target: T2, Mineralocorticoid receptor (Homo sapiens, UniProt P08235); test: Displacement of TAMRA-labeled dexamethasone from mineralocorticoid receptor (unknown origin) by fluorescence polarization assay
T2 sequence (P08235 whole entry): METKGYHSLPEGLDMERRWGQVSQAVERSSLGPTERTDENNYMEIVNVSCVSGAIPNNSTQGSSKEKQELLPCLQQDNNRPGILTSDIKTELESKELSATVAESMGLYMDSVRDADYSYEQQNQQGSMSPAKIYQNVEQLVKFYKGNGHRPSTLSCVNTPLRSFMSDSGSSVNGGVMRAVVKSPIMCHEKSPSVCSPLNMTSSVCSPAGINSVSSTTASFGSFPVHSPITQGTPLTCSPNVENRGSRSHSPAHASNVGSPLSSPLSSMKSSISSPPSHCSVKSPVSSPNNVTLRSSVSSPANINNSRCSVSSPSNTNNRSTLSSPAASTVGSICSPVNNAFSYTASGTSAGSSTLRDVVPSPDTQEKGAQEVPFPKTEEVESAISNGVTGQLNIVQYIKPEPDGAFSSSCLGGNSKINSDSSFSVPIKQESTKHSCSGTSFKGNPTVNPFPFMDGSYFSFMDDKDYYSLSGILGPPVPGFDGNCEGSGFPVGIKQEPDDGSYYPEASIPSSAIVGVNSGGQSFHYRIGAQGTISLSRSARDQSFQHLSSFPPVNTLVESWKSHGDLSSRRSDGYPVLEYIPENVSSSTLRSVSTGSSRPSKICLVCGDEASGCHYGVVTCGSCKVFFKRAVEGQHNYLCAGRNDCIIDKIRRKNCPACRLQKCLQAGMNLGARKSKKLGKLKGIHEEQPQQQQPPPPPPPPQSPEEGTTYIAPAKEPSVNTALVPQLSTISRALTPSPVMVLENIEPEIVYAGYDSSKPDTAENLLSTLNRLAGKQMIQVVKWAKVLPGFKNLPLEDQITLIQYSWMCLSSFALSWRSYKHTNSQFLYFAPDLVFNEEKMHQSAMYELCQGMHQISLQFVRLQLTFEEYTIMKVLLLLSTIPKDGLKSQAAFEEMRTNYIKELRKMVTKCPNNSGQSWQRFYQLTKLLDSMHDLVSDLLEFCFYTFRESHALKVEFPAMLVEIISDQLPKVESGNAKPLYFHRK

Glucocorticoid receptor [2] = target: T3, Glucocorticoid receptor (Homo sapiens, UniProt P04150)
T3 sequence (P04150 whole entry): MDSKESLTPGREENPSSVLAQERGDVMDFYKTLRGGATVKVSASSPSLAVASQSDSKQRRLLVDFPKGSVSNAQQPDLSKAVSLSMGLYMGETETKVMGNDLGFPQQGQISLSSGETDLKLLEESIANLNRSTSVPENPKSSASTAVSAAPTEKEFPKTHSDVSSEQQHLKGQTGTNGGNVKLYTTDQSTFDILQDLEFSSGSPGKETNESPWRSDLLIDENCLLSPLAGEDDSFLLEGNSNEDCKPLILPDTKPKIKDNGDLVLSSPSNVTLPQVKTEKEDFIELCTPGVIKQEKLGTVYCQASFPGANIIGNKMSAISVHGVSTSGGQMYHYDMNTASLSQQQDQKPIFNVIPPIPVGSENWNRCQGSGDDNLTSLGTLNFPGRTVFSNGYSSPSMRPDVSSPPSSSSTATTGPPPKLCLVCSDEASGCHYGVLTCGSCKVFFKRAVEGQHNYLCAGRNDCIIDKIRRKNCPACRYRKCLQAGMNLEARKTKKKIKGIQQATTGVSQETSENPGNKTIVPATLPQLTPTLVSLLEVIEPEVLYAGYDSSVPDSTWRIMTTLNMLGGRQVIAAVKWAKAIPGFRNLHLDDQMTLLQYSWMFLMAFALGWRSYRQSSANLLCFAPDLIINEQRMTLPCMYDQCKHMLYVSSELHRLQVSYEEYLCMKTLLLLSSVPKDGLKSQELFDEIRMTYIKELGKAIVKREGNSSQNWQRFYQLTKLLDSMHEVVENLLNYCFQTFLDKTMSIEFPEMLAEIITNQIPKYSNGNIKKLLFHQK
Description: Agonist activity at glucocorticoid receptor in human foreskin fibroblasts assessed as inhibition of IL-1-induced IL-6 production by trans-repression assay

Homo sapiens [3] = organism: Homo sapiens; test: Selectivity ratio of IC50 for progesterone receptor (unknown origin) to IC50 for glucocorticoid receptor (unknown origin)
Homo sapiens [4] = organism: Homo sapiens; test: Selectivity ratio of IC50 for mineralocorticoid receptor (unknown origin) to IC50 for glucocorticoid receptor (unknown origin)
Glucocorticoid receptor [5] = target: T3, Glucocorticoid receptor; remark: listed apart in the source
Mus musculus [6] = test: Toxicity in B10.RIII mouse assessed as triglyceride level in serum at 30 mg/kg, po qd for 5 weeks relative to control; format: organism-based; parameters: dose 30 mg/kg, route oral; conditions: in vivo, 840 h
Mus musculus [7] = test: Toxicity in B10.RIII mouse assessed as free fatty acid level in serum at 3 mg/kg, po qd for 5 weeks relative to control; format: organism-based; parameters: dose 3 mg/kg, route oral; conditions: in vivo, 840 h
Mus musculus [8] = test: Toxicity in B10.RIII mouse assessed as insulin level in serum at 30 mg/kg, po qd for 5 weeks relative to control; format: organism-based; parameters: dose 30 mg/kg, route oral; conditions: in vivo, 840 h
Mus musculus [9] = test: Toxicity in B10.RIII mouse assessed as body fate level in serum at 3 mg/kg, po qd for 5 weeks relative to control; format: organism-based; parameters: dose 3 mg/kg, route oral; conditions: in vivo, 840 h
Mus musculus [10] = test: Toxicity in B10.RIII mouse assessed as insulin level in serum at 3 mg/kg, po qd for 5 weeks relative to control; format: organism-based; parameters: dose 3 mg/kg, route oral; conditions: in vivo, 840 h
Mus musculus [11] = test: Toxicity in B10.RIII mouse assessed as body fate level in serum at 30 mg/kg, po qd for 5 weeks relative to control; format: organism-based; parameters: dose 30 mg/kg, route oral; conditions: in vivo, 840 h
Mus musculus [12] = test: Toxicity in B10.RIII mouse assessed as free fatty acid level in serum at 30 mg/kg, po qd for 5 weeks relative to control; format: organism-based; parameters: dose 30 mg/kg, route oral; conditions: in vivo, 840 h
Mus musculus [13] = test: Antiarthritic activity in B10.RIII mouse collagen/complete Freund's adjuvant-induced arthritis model assessed as reduction of disease score at 30 mg/kg, po qd for 5 weeks relative to control; format: functional; parameters: scale not given: the % may be the effect or the level left
Mus musculus [14] = test: Antiinflammatory activity in mouse assessed as inhibition of LPS-induced TNFalpha production at 3 mg/kg, po; format: functional
Mus musculus [15] = test: Antiarthritic activity in B10.RIII mouse collagen/complete Freund's adjuvant-induced arthritis model assessed as reduction of disease score at 3 mg/kg, po qd for 5 weeks relative to control; format: functional; parameters: scale not given: the % may be the effect or the level left
Mus musculus [16] = test: Toxicity in B10.RIII mouse assessed as triglyceride level in serum at 3 mg/kg, po qd for 5 weeks relative to control; format: organism-based; parameters: dose 3 mg/kg, route oral; conditions: in vivo, 840 h
[17] = Chemical stability of the compound in aqueous solution at pH 2; format: physicochemical; conditions: buffer
Glucocorticoid receptor [18] = target: T3, Glucocorticoid receptor; test: Transactivation of glucocorticoid receptor in human HeLa cells harboring MMTV promoter at 2 uM by luciferase reporter gene assay relative to dexamethasone; format: cell-based; conditions: read-out: Efficacy
Glucocorticoid receptor [19] = target: T3, Glucocorticoid receptor; remark: listed apart in the source
Description: Transactivation of glucocorticoid receptor in human HeLa cells harboring MMTV promoter by luciferase reporter gene assay

[20] = Chemical stability of the compound in aqueous solution at pH 2 to 7.4 after 24 hrs; format: physicochemical; conditions: buffer, pH 2, 24 h

Row | Structure (SMILES) | IC50 (Progesterone receptor) | IC50 [1] | IC50 (Glucocorticoid receptor [2]) | IC50 (Glucocorticoid receptor [5]) | also measured
1 | COc1ccc(F)cc1C(C)(C)CC(O)(Cc1cc2ccncc2[nH]1)C1CC1 (centres undefined) | > 2 µM | > 2 µM | 0.047 µM | 0.015 µM | Ratio IC50 (Homo sapiens [3]): > 100; Ratio IC50 (Homo sapiens [4]): > 100
2 | COc1ccc(F)cc1C(C)(C)CC(O)(Cc1cc2ccncc2[nH]1)C(F)(F)F (centres undefined) | > 2 µM | – | 0.01 µM | 0.004 µM | –
3 | C[C@]12C=CC(=O)C=C1CC[C@@H]1[C@@H]2[C@@H](O)C[C@@]2(C)[C@H]1CC[C@]2(O)C(=O)CO [PREDNISOLONE] | – | – | – | – | Activity (Mus musculus [6]): 55%; Activity (Mus musculus [7]): 16%; Activity (Mus musculus [8]): 187%; Activity (Mus musculus [9]): 13%; Activity (Mus musculus [10]): 37%; Activity (Mus musculus [11]): 53%; Activity (Mus musculus [12]): 27%; Activity (Mus musculus [13]): -80%; inhibition in vivo at 3 mg/kg (Mus musculus [14]): 87%; Activity (Mus musculus [15]): -42%; Activity (Mus musculus [16]): -11%
4 | Cc1ccc(F)cc1C(C)(C)C[C@](O)(Cc1cc2cnccc2[nH]1)C(C)(C)C | > 2 µM | 1.3 µM | – | 1.3 µM | –
5 | Cc1ccc(F)cc1C(C)(C)CC(O)(Cc1cc2cnccc2[nH]1)C1CC1 (centres undefined) | > 2 µM | 1.55 µM | 0.024 µM | 0.009 µM | Stability [17]: Unstable; Emax at 2 µM (Glucocorticoid receptor [18]): 11%; EC50 (Glucocorticoid receptor [19]): > 2 µM
6 | COc1ccc(F)cc1C(C)(C)CC(O)(Cc1cc2ccncc2[nH]1)C(C)(C)C (centres undefined) | 1.8 µM | 1.8 µM | 0.036 µM | 0.008 µM | Ratio IC50 (Homo sapiens [3]): > 100; Ratio IC50 (Homo sapiens [4]): > 100
7 | COc1ccc(F)cc1C(C)(C)CC(O)(Cc1cc2cnccc2[nH]1)C1CC1 (centres undefined) | > 2 µM | 1.8 µM | 0.008 µM | 0.006 µM | Emax at 2 µM (Glucocorticoid receptor [18]): 20%; EC50 (Glucocorticoid receptor [19]): 0.09 µM
8 | COc1ccc(F)cc1C(C)(C)CC(O)(Cc1cc2ccncc2[nH]1)C1CCC1 (centres undefined) | > 2 µM | > 2 µM | 0.26 µM | 0.017 µM | –
9 | Cc1ccc(F)cc1C(C)(C)CC(O)(Cc1cc2cnccc2[nH]1)C(C)(C)C (racemic) | 0.78 µM | 0.72 µM | 0.035 µM | 0.005 µM | Stability [17]: Stable; Stability [20]: Stable; Emax at 2 µM (Glucocorticoid receptor [18]): 1%; EC50 (Glucocorticoid receptor [19]): > 2 µM
10 | COc1ccc(F)cc1C(C)(C)CC(C)(O)Cc1cc2ccncc2[nH]1 (centres undefined) | > 2 µM | > 2 µM | > 2 µM | 0.23 µM | –
11 | COc1ccc(F)cc1C(C)(C)CC(O)(Cc1cc2ccncc2[nH]1)C1CCCC1 (single isomer, unassigned) | > 2 µM | 1.1 µM | > 2 µM | 0.026 µM | –
12 | CCC(O)(Cc1cc2ccncc2[nH]1)CC(C)(C)c1cc(F)ccc1OC (centres undefined) | > 2 µM | > 2 µM | 0.22 µM | 0.051 µM | –
13 | COc1ccc(F)cc1C(C)(C)CC(O)(Cc1cc2cnccc2[nH]1)C(C)(C)C (centres undefined) | 0.79 µM | 0.64 µM | 0.009 µM | 0.004 µM | Emax at 2 µM (Glucocorticoid receptor [18]): 10%; EC50 (Glucocorticoid receptor [19]): > 2 µM
14 | COc1ccc(F)cc1C(C)(C)CC(O)(Cc1cc2ccncc2[nH]1)C(C)C (centres undefined) | > 2 µM | 1 µM | 0.073 µM | 0.009 µM | Ratio IC50 (Homo sapiens [3]): > 100; Ratio IC50 (Homo sapiens [4]): > 100
15 | CCC(C)(C)C(O)(Cc1cc2ccncc2[nH]1)CC(C)(C)c1cc(F)ccc1OC (centres undefined) | > 2 µM | 1.9 µM | > 2 µM | 0.013 µM | Ratio IC50 (Homo sapiens [3]): > 100; Ratio IC50 (Homo sapiens [4]): > 100
